Holding throughout (format): biochemical
Common to all, as to details: apparent Ki via Cheng-Prusoff from IC50; room temperature, 1 nM enzyme

One test addresses factor Xa (Homo sapiens, UniProt P00742). In words: Enzyme assay, inhibition of factor Xa using purified enzyme (chromogenic peptide-p-nitroanilide substrate). The procedure:
(§1) All enzyme as says are carried out at room temperature in 96-well microtiter plates using a final enzyme concentration of 1 nM. The concentrations of factor Xa and thrombin are determined by active site titration and the concentrations of all other enzymes are based on the protein concentration supplied by the manufacturer. Compounds according to the invention are dissolved in DMSO, diluted with their respective buffers and assayed at a maximal final DMSO concentration of 1.25%. Compound dilutions are added to wells containing buffer and enzyme and pre-equilibrated for between 5 and 30 minutes. The enzyme reactions are initiated by the addition of substrate and the color developed from the hydrolysis of the peptide-p-nitroanilide substrates is monitored continuously for 5 minutes at 405 nm on a Vmax microplate reader (Molecular Devices). Under these conditions, less than 10% of the substrate is utilized in all assays. […] The apparent Ki values are then determined according to the Cheng-Prusoff equation (IC50=Ki[1+[S]J/Km]) assuming competitive inhibition kinetics.

The target of the next test is T1, trypsin (Bos taurus, UniProt P00760).
T1 construct: factor Xa, thromb in, trypsin; purchased
T1 sequence (P00760 24-246): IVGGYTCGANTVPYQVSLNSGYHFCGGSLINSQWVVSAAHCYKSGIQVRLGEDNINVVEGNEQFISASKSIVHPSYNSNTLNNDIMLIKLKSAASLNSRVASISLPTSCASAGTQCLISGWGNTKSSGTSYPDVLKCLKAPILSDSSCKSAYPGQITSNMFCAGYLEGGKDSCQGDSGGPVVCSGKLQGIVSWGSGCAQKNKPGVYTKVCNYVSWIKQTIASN
Kind of test: Enzyme assay, inhibition of trypsin using purified enzyme (chromogenic peptide-p-nitroanilide substrate). The protocol: as §1

Another test addresses thrombin (Homo sapiens, UniProt P00734). Kind of test: Enzyme assay, inhibition of thrombin using purified enzyme (chromogenic peptide-p-nitroanilide substrate). The protocol: as §1, with “Compound dilutions are added to wells containing buffer and enzyme and pre-equilibrated for between 5 and 30 minutes.” left out

Structures are written as SMILES.

Chain of factor Xa (P00742 235-488 limits assumed): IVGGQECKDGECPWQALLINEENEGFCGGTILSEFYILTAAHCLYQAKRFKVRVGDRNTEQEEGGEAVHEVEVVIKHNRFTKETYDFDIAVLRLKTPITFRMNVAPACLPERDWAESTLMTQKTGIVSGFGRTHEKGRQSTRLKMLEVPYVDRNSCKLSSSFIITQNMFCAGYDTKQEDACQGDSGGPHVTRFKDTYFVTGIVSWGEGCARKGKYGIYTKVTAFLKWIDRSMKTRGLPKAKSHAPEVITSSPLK
Chain of factor Xa (P00742 41-179 partner limits assumed): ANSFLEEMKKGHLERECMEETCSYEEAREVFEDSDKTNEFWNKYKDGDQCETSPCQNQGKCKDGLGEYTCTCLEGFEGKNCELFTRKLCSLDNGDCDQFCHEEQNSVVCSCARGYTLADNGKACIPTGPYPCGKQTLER

As to `CC(=O)OCC(Cc1cccc(C(=N)N)c1)C(/C=C/c1ccccc1)NC(=O)c1ccc(-c2ccccc2)cc1` (stereo not drawn) [Compound 45], the Ki was determined as 94 nM on factor Xa, 129 nM at trypsin and 477 nM at thrombin.

As to `COc1ccc(-c2ccc(C(=O)NC(CCc3ccccc3)C(COC(C)=O)Cc3cccc(C(=N)N)c3)cc2)cc1OC` (stereo not drawn) [Compound 167], the values for the Ki at factor Xa, at trypsin and on thrombin were 19 nM, 46 nM and 1230 nM, respectively.

Turning to `CN(C)Cc1cccc(-c2ccc(C(=O)NC(Cc3ccccc3)C(CO)Cc3cccc(C(=N)N)c3)cc2)c1` (stereo not drawn) [Compound 184], the Ki was found to be 27 nM at factor Xa, 1720 nM on trypsin and 2710 nM at thrombin.
